{"source": "patent US9040261B2", "about": "“Compounds as L-cystine crystallization inhibitors and uses thereof” (NEW YORK UNIVERSITY, priority 2009, dated 2015)", "key": {"[1]": {"assay": "Bulk crystallization of L-cystine in the presence of additives (mass yield)", "settings": "for influence on L-cystine growth: polymers and proteins with proximal carboxylate and amine groups", "description": "Alternately, the hexagonal crystals can be obtained by crystallization performed near neutral pH (Sa) The hexagonal form was crystallized from a supersaturated L-cystine solution prepared by adding 70 mg of L-cystine to 100 mL of deionized water (3 mM), and heating under reflux at 100° C. for 20 min with stirring to completely dissolve L-cystine. […] This concentration was used for bulk crystallization studies in the presence of additives so that a measurable amount of bulk crystals could be obtained in a reasonable time. The solution was then allowed to cool slowly with stirring for 75 min. 30 mL aliquots were transferred to separate glass containers, which were then sealed to prevent evaporation and exposure to airborne particulates and stored for 72 hours at room temperature without stirring. […] The crystals retrieved in this manner were used for AFM studies by mounting individual crystals according to the procedure described below.\nVarious proteins, poly-amino acids, and molecular mimics of L-cystine were examined as additives. The aforementioned procedure for hexagonal platelet crystallization was repeated. Following the 75 min cooling period, prior to any observable crystallization, the additive was added to the supersaturated L-cystine solution to the desired concentration. […] Crystallization without additive was performed in an identical manner for comparison using a control solution from the same batch. The mass yields of L-cystine crystals were obtained by dividing the mass of L-cystine crystals (collected from growth solution by filtration) by the mass of L-cystine added in the growth solution.\nAdditives chosen for these studies were various proteins, poly-amino acids, and molecular mimics of L-cystine (see Table 1). The above procedure for hexagonal platelet crystallization was repeated until completion of the 75 min cooling period, at which point 29.5 g of solution was transferred to a 100 mL beaker containing 0.5 g of separately prepared additive solution to yield net concentrations of 2 mg/L additive and 0.7 g/L L-cystine. Additive solutions were replaced with deionized water of equivalent volume for control measurements. […]\nL-cystine bulk crystallization was investigated in the presence of various polymers, urinary constituents, fish antifreeze proteins (AFPs), and L-cystine derivatives (i.e. structural mimics of L-cystine), which were analyzed as possible growth inhibitors of hexagonal L-cystine. The potency of each additive was assessed by comparing the difference in crystal yield (Table 1), which is equal to the mass of crystals formed in the presence of 2 mg/L additive (isolated with […]) divided by the total mass of L-cystine (700 mg/L)."}, "[2]": {"assay": "Crystal size and habit by optical microscopy and SEM after bulk crystallization with additive", "settings": "for L-cystine crystal habit in the presence of additive: hexagonal platelets without additive", "description": "Various proteins, poly-amino acids, and molecular mimics of L-cystine were examined as additives. The aforementioned procedure for hexagonal platelet crystallization was repeated. Following the 75 min cooling period, prior to any observable crystallization, the additive was added to the supersaturated L-cystine solution to the desired concentration. The container was sealed and stored for 72 hours at room temperature without stirring, after which the precipitate was collected by vacuum filtration (Whatman Grade 1 filters, >11 μm pores) and were air dried prior to analysis. Crystallization without additive was performed in an identical manner for comparison using a control solution from the same batch. The mass yields of L-cystine crystals were obtained by dividing the mass of L-cystine crystals (collected from growth solution by filtration) by the mass of L-cystine added in the growth solution. The crystals were isolated with 11 μm-pore filters, which were regarded as sufficiently small for reliable capture of the crystals (optical micrographs reveal that the size of crystals was always greater than 50 μm\nAn Orion 3 Star pH meter (Thermo Electron Corp.) with Orion 9157BNMD probe was used to measure the pH of L-cystine solutions. Crystal morphology was measured with a Leitz ERGOLUZ optical microscope and a Hitachi 3500 scanning electron microscopy. A thin coating of gold (2 nm) was sputtered on SEM samples and images were acquired at low voltage (2-5 kV) to minimize sample melting. ^1H NMR spectra were recorded using a Bruker AVANCE 400 spectrometer and were routinely run using broadband decoupling. Chemical shifts (δ), expressed in ppm, are referenced to the corresponding residual nuclei in deuterated solvent (D2O). Powder X-ray diffraction (XRD) patterns of isolated crystals were acquired with a Panalytical XPert PRO MPD using a Bragg-Brentano geometry with fixed slits at power settings of 45 kV and 40 mA. A CuKa radiation (0.154 nm) source was used with a 1 degree fixed divergence slit (10 mm beam mask) for incident X-rays and a 1 degree anti-scatter slit Ni filter ( 1/16 degree receiving slit) for diffracted X-rays."}, "[3]": {"settings": "2 mg/L additive, 0.7 g/L L-cystine (pH 6.8), no additive 80, approximate error ±8%"}, "[4]": {"settings": "10 mg/L L-cysteine methylester, 700 mg/L L-cystine"}}, "note": "Where a name gives a salt, the structure may show the parent alone. Marks after values point to notes of the source that are not given here."}
{"molecule": "Osteopontin (bovine): Osteopontin, extracted and purified from bovine milk, contains 7 wt % Ca2+ ions", "values": [{"measurement": "Yield (%) = (collected mass by filtration, >11 μm)/(total mass added) × 100%", "setting": "[1]; [3]", "result": 52, "unit": "%"}, {"measurement": "influence on L-cystine growth", "setting": "[1]; Table 1", "result": "negligible influence"}]}
{"molecule": "O=C(O)CCSSCCC(=O)O", "note": "[3,3′-Dithiodiproprionic acid, 3,3′-dithiodipropionic acid, reference compound]", "values": [{"measurement": "Yield (%) = (collected mass by filtration, >11 μm)/(total mass added) × 100%", "setting": "[1]; [3]", "result": 72, "unit": "%"}]}
{"molecule": "COC(=O)[C@@H](N)CS.Cl", "note": "[L-cysteine methyl ester, L-cysteine methyl ester hydrochloride, reference compound]", "values": [{"measurement": "Yield (%) = (collected mass by filtration, >11 μm)/(total mass added) × 100%", "setting": "[1]; 10 mg/L additive, 0.7 g/L L-cystine, no additive 80±8%, hydrochloride", "result": 32, "unit": "%"}, {"measurement": "needle length", "setting": "[2]; [4]", "result": "< 50", "unit": "μm"}, {"measurement": "needle width", "setting": "[2]; [4]", "result": "< 5", "unit": "μm"}, {"measurement": "L-cystine crystal habit in the presence of additive", "setting": "[2]", "result": "needles"}]}
{"molecule": "O=C(O)CC(O)(CC(=O)O)C(=O)O", "note": "[Citrate, sodium citrate (dihydrate), reference compound]", "values": [{"measurement": "Yield (%) = (collected mass by filtration, >11 μm)/(total mass added) × 100%", "setting": "[1]; pH 6.8", "result": 74, "unit": "%"}]}
{"molecule": "Transferrin: apo-transferrin (human, >98%)", "values": [{"measurement": "Yield (%) = (collected mass by filtration, >11 μm)/(total mass added) × 100%", "setting": "[1]; [3]", "result": 56, "unit": "%"}]}
{"molecule": "Poly-L-aspartate [reference compound]", "values": [{"measurement": "Yield (%) = (collected mass by filtration, >11 μm)/(total mass added) × 100%", "setting": "[1]; [3]", "result": 44, "unit": "%"}]}
{"molecule": "CC(C)(SSC(C)(C)[C@@H](N)C(=O)O)[C@H](N)C(=O)O", "note": "[D-penicillamine disulfide, reference compound]", "values": [{"measurement": "Yield (%) = (collected mass by filtration, >11 μm)/(total mass added) × 100%", "setting": "[1]; [3]", "result": 65, "unit": "%"}]}
{"molecule": "Tamm-Horsfall protein: Tamm-Horsfall protein obtained from a human sample with no history of kidney stone disease", "values": [{"measurement": "Yield (%) = (collected mass by filtration, >11 μm)/(total mass added) × 100%", "setting": "[1]; [3]", "result": 69, "unit": "%"}, {"measurement": "influence on L-cystine growth", "setting": "[1]; Table 1", "result": "negligible influence"}]}
{"molecule": "CC(C)(C)SSC[C@H](N)C(=O)O", "note": "[S-tert-butylmercapto-L-cystine, 5-tert-butylmercapto-L-cysteine, reference compound]", "values": [{"measurement": "Yield (%) = (collected mass by filtration, >11 μm)/(total mass added) × 100%", "setting": "[1]; [3]", "result": 45, "unit": "%"}]}
{"molecule": "Poly-L-arginine [reference compound]", "values": [{"measurement": "Yield (%) = (collected mass by filtration, >11 μm)/(total mass added) × 100%", "setting": "[1]; [3]", "result": 34, "unit": "%"}]}
{"molecule": "Poly-L-glutamate [reference compound]", "values": [{"measurement": "Yield (%) = (collected mass by filtration, >11 μm)/(total mass added) × 100%", "setting": "[1]; [3]", "result": 56, "unit": "%"}, {"measurement": "influence on L-cystine growth", "setting": "[1]; Table 1", "result": "negligible influence"}]}
{"molecule": "Chondroitin sulfate", "values": [{"measurement": "Yield (%) = (collected mass by filtration, >11 μm)/(total mass added) × 100%", "setting": "[1]; [3]", "result": 64, "unit": "%"}]}
{"molecule": "Poly-L-lysine [reference compound]", "values": [{"measurement": "Yield (%) = (collected mass by filtration, >11 μm)/(total mass added) × 100%", "setting": "[1]; [3]", "result": 64, "unit": "%"}, {"measurement": "influence on L-cystine growth", "setting": "[1]; Table 1", "result": "negligible influence"}]}
{"molecule": "COC(=O)[C@@H](N)CSSC[C@H](N)C(=O)O", "note": "[CME, L-Cystine Methyl Ester]", "values": [{"measurement": "Yield (%) = (collected mass by filtration, >11 μm)/(total mass added) × 100%", "setting": "[1]; [3]", "result": "92* %"}, {"measurement": "CME concentration needed for crystal growth inhibition similar to CDME", "setting": "[1]; bulk crystallization", "result": "more than twice that of CDME"}, {"measurement": "needle volume less than hexagonal platelets", "setting": "[2]", "result": "~100", "unit": "times"}, {"measurement": "L-cystine crystal habit in the presence of additive", "setting": "[2]", "result": "tapered hexagonal crystals"}]}
{"molecule": "N[C@@H](CS)C(=O)O", "note": "[L-cysteine, reference compound]", "values": [{"measurement": "Yield (%) = (collected mass by filtration, >11 μm)/(total mass added) × 100%", "setting": "[1]; 10 mg/L additive, 0.7 g/L L-cystine, no additive 80±8%", "result": 91, "unit": "%"}, {"measurement": "influence on mass yield", "setting": "[1]; bulk crystallization, Table 1", "result": "did not influence the yield"}, {"measurement": "L-cystine crystal habit in the presence of additive", "setting": "[2]", "result": "Hexagonal L-cystine platelets"}]}
{"molecule": "Desialylated Tamm-Horsfall protein: native THP desialylated by treatment with neuraminidase (50% reduction of carbohydrate content)", "values": [{"measurement": "Yield (%) = (collected mass by filtration, >11 μm)/(total mass added) × 100%", "setting": "[1]; [3]", "result": 41, "unit": "%"}]}
